# According to US20150018299A1, “TREATMENT OF LIVER CONDITIONS” (CAN-FITE BIOPHARMA LTD., priority 2012, published 2015):
# Where “and” joins values, the source holds several entries; their conditions need not be identical. Identical values can stand only once.
# Assays:
# [1] = test system: patients with hepatocellular carcinoma (HCC); experiment: Phase 1-2 study of oral CF102: liver function parameters over 6 months; assay type: in vivo, human; details: serum, over a 6 months period
# From the text: The trial employed a conventional “three plus three” design. […] At the first stage nine patients were enrolled for the dose escalation phase and then additional nine were enrolled for the dose confirmation phase. Furthermore, nine patients have undergone intra-subject dose escalation per protocol. Subjects returned for a follow-up visit 28 days after completion of the last dose of study drug.
# [2] = human, in vivo
# From the text: The number and percentage of subjects who experienced one or more AEs were summarized by dose level group, relationship to study drug, and severity. AEs were coded using Medical Dictionary for Regulatory Activities (MedDRA) terminology. Clinical laboratory parameters were summarized using descriptive statistics, by post-dosing shifts relative to baseline, and data listings of clinically significant abnormalities. Vital signs and ECG data were summarized by changes from baseline values at each dose level using descriptive statistics. Pharmacokinetic parameters, including AUC (0-8 h), Cmax, Cmin, and Tmax was estimated. Comparisons across dose levels were made to assess proportionality. Overall survival was calculated using the Kaplan-Meier method.
# [3] = test system: patients with advanced hepatocellular carcinoma (HCC); experiment: Phase 1-2 dose-escalation study of oral CF102: overall survival and clinical activity; assay type: in vivo, human; details: for Survival from start of CF102: individual subjects
# From the text: All patients were over the age of 18 with incurable advanced, refractory, or metastatic hepatocellular carcinoma (HCC), documented by cytology and/or histology for patients without underlying cirrhosis or according to the American Association for the Study of Liver Diseases Practice Guideline algorithm for patients with underlying cirrhosis. All patients had measurable disease, according to Response Evaluation Criteria in Solid Tumors (RECIST); […] The trial employed a conventional “three plus three” design. […] At the first stage nine patients were enrolled for the dose escalation phase and then additional nine were enrolled for the dose confirmation phase. Furthermore, nine patients have undergone intra-subject dose escalation per protocol. Subjects returned for a follow-up visit 28 days after completion of the last dose of study drug. […] Safety data analysis was conducted on all subjects who received at least one dose of CF102. The number and percentage of subjects who experienced one or more AEs were summarized by dose level group, relationship to study drug, and severity. AEs were coded using Medical Dictionary for Regulatory Activities (MedDRA) terminology. Clinical laboratory parameters were summarized using descriptive statistics, by post-dosing shifts relative to baseline, and data listings of clinically significant abnormalities. Vital signs and ECG data were summarized by changes from baseline values at each dose level using descriptive statistics. Pharmacokinetic parameters, including AUC (0-8 h), Cmax, Cmin, and Tmax was estimated. Comparisons across dose levels were made to assess proportionality. Overall survival was calculated using the Kaplan-Meier method.
smiles,measurement,setting,value
"CNC(=O)[C@H]1O[C@@H](n2cnc3c(NCc4cccc(I)c4)nc(Cl)nc32)[C@H](O)[C@@H]1O [CF102, 2-Chloro-N^6-(3-iodobenzyl)-adenosine-5′-N-methyluronamide]","Liver function parameters: ALT, AST, albumin, bilirubin, prothrombin time, ALK phosphatase, α-fetoprotein",[1],remained stable
same,Plasma levels,[2],> 0.66 nM
same,"Overall survival, range",[3]; 12 sorafenib failures,3.5-13.2 months
same,Median overall survival (OS),"[3]; 12 sorafenib failures, CF102 as second line therapy",7 months and 7.0 months
same,Median overall survival (OS),[3]; all 18 subjects,7.82 months and 7.8 months
same,"Overall survival, range",[3]; all 18 subjects,3.5-27.3 months
same,Median overall survival (OS),[3]; five Child-Pugh B patients,8.1 months
same,"Overall survival, range",[3]; five Child-Pugh B patients,7.0-13.2 months
same,Survival from start of CF102,[3]; starting dose 1 mg BID oral,7.1 months and 5.6 months and 13.2** months and 7.0 months and 8.2 months and 27.3* months
same,Survival from start of CF102,[3]; starting dose 5 mg BID oral,4.1 months and 7.1 months and 10.6 months and 10.7 months and 3.5 months and 4.2 months
same,Survival from start of CF102,[3]; starting dose 25 mg BID oral,8.3 months and 8.1 months and 7.6 months and 7.0 months and 12.6 months and 8.4 months
same,Period of Stable Disease (SD) by RECIST criteria,[3]; one subject,10 months
same,Time receiving CF102,"[3]; one subject, continuing on drug",≥ 41 months
